# Test results as given in patent US20230234942A1, “COMPOUNDS FOR TREATING HUNTINGTON'S DISEASE” (PTC Therapeutics, Inc., priority 2020, published 2023).
# pIC50: −log10 of the molar value.
# Test system: Endogenous Huntingtin Protein
# Test: Endogenous Huntingtin Protein Assay (ELISA-based MSD electrochemiluminescence)
# Type: cell-based
# Details: Table 2; MSD plates coated with MW1 (expanded polyglutamine) or MAB2166 capture antibody; "inactive" = result above the detection limit of the assay
# In short: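 Endogenous huntingtin measured on MSD plates coated with MW1 (polyglutamine-expanded) or MAB2166 capture antibody; lysates bound overnight at 4 °C. Signal developed with #56565 rabbit monoclonal and goat anti-rabbit SULFO-TAG (0.25 µg/mL, 1 h RT each), electrochemiluminescence read on SI 6000.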
row,pIC50,Structure (SMILES)
1,7.71,"Cc1ccc2c(cnn2-c2ccc(-c3cnc(N4CCN[C@@H](C(C)C)C4)nn3)c(O)c2)n1 [Cpd 155, 5-(5-methyl-1H-pyrazolo[4,3-b]pyridin-1-yl)-2-{3-[(3S)-3-(propan-2-yl)piperazin-1-yl]-1,2,4-triazin-6-yl}phenol]"
2,7.26,"[2H]C([2H])([2H])n1cc(-c2ccc(-c3cnc(N4C[C@@H](C)N[C@@H](C5CCC5)C4)nn3)c(O)c2)cn1 [Cpd 238, 2-{3-[(3S,5R)-3-cyclobutyl-5-methylpiperazin-1-yl]-1,2,4-triazin-6-yl}-5-[l-(^2H3)methyl-1H-pyrazol-4-yl]phenol]"
3,6.86,"Cc1cc(-c2ccc(-c3cnc(N4CCNC(C(C)C)C4)nn3)c(O)c2)ccn1 (stereo not drawn) [Cpd 44, 5-(2-methylpyridin-4-yl)-2-{3-[3-(propan-2-yl)piperazin-1-yl]-1,2,4-triazin-6-yl}phenol]"
4,6.47,"C[C@@H]1CN(c2ncc(-c3ccc(-n4nccn4)cc3O)nn2)C[C@H](C)N1C [Cpd 52, 5-(2H-1,2,3-triazol-2-yl)-2-{3-[(3R,5S)-3,4,5-trimethylpiperazin-1-yl]-1,2,4-triazin-6-yl}phenol]"
5,5.62,"Oc1cc(-c2cn[nH]c2)ccc1-c1cnc(N2CCNC(c3ccncc3)C2)nn1 (stereo not drawn) [Cpd 62, 5-(1H-pyrazol-4-yl)-2-{3-[3-(pyridin-4-yl)piperazin-1-yl]-1,2,4-triazin-6-yl}phenol]"
6,7.90,"[2H]C([2H])([2H])n1cc(-c2cc(O)c(-c3cnc(N4CCN[C@@H](C(C)(C)C)C4)nn3)cc2F)cn1 [Cpd 156, 2-{3-[(3S)-3-tert-butylpiperazin-1-yl]-1,2,4-triazin-6-yl}-4-fluoro-5-[1-(^2H3)methyl-1H-pyrazol-4-yl]phenol]"

# Continued, compound first:
row,Structure (SMILES),pIC50
1,"CC(C)[C@H]1CN(c2ncc(-c3cc(F)c(-c4cn[nH]c4)cc3O)nn2)CCN1 [Cpd 158, 4-fluoro-2-{3-[(3S)-3-(propan-2-yl)piperazin-1-yl]-1,2,4-triazin-6-yl}-5-(1H-pyrazol-4-yl)phenol]",8.25
2,"CC(C)[C@H]1CN(c2ncc(-c3ccc(-c4ccncc4)cc3O)nn2)CCN1 [Cpd 161, 2-{3-[(3S)-3-(propan-2-yl)piperazin-1-yl]-1,2,4-triazin-6-yl}-5-(pyridin-4-yl)phenol]",7.22
3,"COc1cc(-c2ccc(-c3cnc(N4C[C@@H](C)N[C@@H](C)C4)nn3)c(O)c2)nn2nc(C)nc12 [Cpd 90, 2-{3-[(3R,5S)-3,5-dimethylpiperazin-1-yl]-1,2,4-triazin-6-yl}-5-(8-methoxy-2-methyl[1,2,4]triazolo[1,5-b]pyridazin-6-yl)phenol]",8.17
4,"Cn1cc2cc(-c3ccc(-c4cnc(N5CCN6CCC[C@H]6C5)nn4)c(O)c3)cc(F)c2n1 [Cpd 99, 5-(7-fluoro-2-methyl-2H-indazol-5-yl)-2-{3-[(8aS)-hexahydropyrrolo[1,2-a]pyrazin-2(1H)-yl]-1,2,4-triazin-6-yl]phenol]",7.98
5,"Cc1cn2cc(-c3cnc(-c4cnc(N5CCN(C)CC5)nn4)c(O)c3)cc(C)c2n1 [Cpd 126, 5-(2,8-dimethylimidazo[1,2-a]pyridin-6-yl)-2-[3-(4-methylpiperazin-1-yl)-1,2,4-triazin-6-yl]pyridin-3-ol]",7.00
6,"CC(C)[C@H]1CN(c2ncc(-c3ccc(-c4cnn5ccccc45)cc3O)nn2)CCN1 [Cpd 244, 2-{3-[(3S)-3-(propan-2-yl)piperazin-1-yl]-1,2,4-triazin-6-yl}-5-(pyrazolo[1,5-a]pyridin-3-yl)phenol]",6.42
7,"COC1(C2CN(c3ncc(-c4ccc(-c5cn[nH]c5)cc4O)nn3)CCN2)CC1 (stereo not drawn) [Cpd 29, 2-{3-[3-(1-methoxycyclopropyl)piperazin-1-yl]-1,2,4-triazin-6-yl}-5-(1H-pyrazol-4-yl)phenol]",7.55
8,"CN1CCN(c2ncc(-c3ccc(-c4cn[nH]c4)cc3O)nn2)CC1C1CC1 (stereo not drawn) [Cpd 27, 2-[3-(3-cyclopropyl-4-methylpiperazin-1-yl)-1,2,4-triazin-6-yl]-5-(1H-pyrazol-4-yl)phenol]",7.60

# Same assay, conditions: Table 3; selected compounds from WO/2019/191229 A1, same MSD assay
row,Structure (SMILES),pIC50
1,"Oc1cc(-c2cn[nH]c2)ccc1-c1cnc(N2CCN3CCC[C@H]3C2)nn1 [WO/2019/191229 A1 Cpd 116, reference compound]",7.04
